Assays:
[1] = target: T1, pseudocholinesterase (Homo sapiens, UniProt P06276); conditions: plasma; cited from earlier work
T1 construct: hydrolyzed at the ester linkage in plasma by pseudocholinesterase; host or cells: plasma

[2] = tested on: motor axons (Ventral Root); experiment: Compound action potential (CAP) conduction block, motor CAP recorded at ventral root, drug applied to lumbar plexus exposure; format: in vivo, rats; conditions: Atip applied to the nerve; FIGS. 2A-3B together
Source text: (§1) A surgical preparation was used to determine whether Atip acts differently on sensory or motor neurons. The procedures used were similar to those described in Petruska et al., 1998 (Experimental Brain Research 121:379-390). Briefly, adult rats received general anesthesia with ketamine/xylazine. The jugular vein, carotid artery, and trachea were intubated for the purposes of administering supplementary anesthesia, monitoring of blood pressure, and measuring end-expired CO2, respectively. Normal body temperature was maintained within 1° C. via a water-based thermal blanket. […]
(§2) Compound action potentials (CAPs) were generated by stimulating the sciatic nerve branches. The CAPs propagated centrally through the lumbar plexus to the dorsal and ventral roots where the sensory and motor CAPs (sCAP and mCAP) were detected with the recording electrodes. Effectiveness of conduction block was assessed by measuring the properties of the CAPs (peak and area) conducted through the lumbar plexus exposure and treated with drug compared to the CAPs in the control condition (vehicle or saline in the lumbar plexus exposure).
(§3) With reference to FIG. 2B, activity in response to electrical stimulation of the peroneal nerve was recorded from sensory and motor fascicles (20-30 sweeps averaged per time point). […]

[3] = tested on: small sensory axons; experiment: Nociceptive cutaneous trunk muscle reflex (CTMR) EMG on electrical stimulation of a treated sensory nerve; format: in vivo, rats; conditions: sensory nerve treated with Atip 20 ul, 200 uM
Experimental: To address this, a different model system was used the cutaneous trunk muscle reflex (CTMR), which was previously developed and validated for use in anesthesiology and pain experimentation (4,5).
With reference to FIG. 3B, the effects of Atip on nociceptor sensory conduction are assessed using nociceptive CTM reflex as readout.
The CTMR in rats appears as a puckering or flicking of the back skin and is elicited only by noxious natural stimulation or by electrical stimulation of sufficient strength to recruit A-delta and C-fibers (4,6,7). Activation of only very few of these sensory axons is sufficient to elicit a CTMR, making the system a “natural amplifier” for small-diameter afferent input and resulting in reflex output detectible at the EMG and behavioral level (4,8).

[4] = tested on: sensory axons (Dorsal Root); experiment: Compound action potential (CAP) conduction block, sensory CAP recorded at dorsal root, drug applied to lumbar plexus exposure; format: in vivo, rats
Source text: as §1, §2, §3

[5] = tested on: injury-sensitized dissociated rat sensory neurons; experiment: Patch-clamp electrophysiology, action potentials induced by depolarizing current; format: cell-based
Experimental: Studies were conducted to examine the effect of Atip administration on action potentials induced by depolarizing current. Electrophysiology in injury-sensitized dissociated rat sensory neurons was recorded with patch-clamp, using methods previously described (5).

[6] = tested on: isolated human DRG Neurons; experiment: Live cell calcium imaging with electric field stimulation; format: cell-based
Experimental: Live cell calcium imaging studies were conducted on isolated human DRG Neurons from post mortem donors. Cells were loaded with 3 uM Fluo 8-AM (AAT Bioquest 21081) containing 0.1% Pluronic F-127 (Sigma P2443) for 20 min. The extracellular solution contained in mM (Sigma): 145 NaCl (S3014), 3 KCl (P3911), 2 CaCl2) (C3881), 1 MgCl2 (M9272), 10 HEPES (H3375), 10 glucose (G5767) adjusted to pH 7.4 with NaOH (72068). Fluo-8-loaded cells were excited at 480 nm and emission was collected at 520 nm with a pcoEDGE sCMOS camera (PCO) mounted on an inverted microscope (Olympus IX71).
For Electric Field stimulation (EFs), images were acquired at 100 Hz for 2.5 sec applying simultaneously a train of 10 pulses (5 Hz, 10 ms). After the recording of the baseline profile at Low (1.5 to 2.0 V) and High (2.5 to 3.0 V) Voltage, a pre incubation of […] of the inhibitor is applied to the well before repeating the EFs procedure (Atip 100 uM, Atip 300 uM, Lidocaine 200 uM (Sigma L7757)). The cells that had less than 50% of the pulse response vs the baseline condition was considered inhibited. A washout of 10 min by perfusion was performed after the last EFs procedure.
Lidocaine was first prepared in stock solution using Ethanol (Sigma 459844), Atip was prepared in stock solution using DMSO (Sigma D8418). Image acquisition and data analysis were performed using MetaMorph software (Molecular Devices).
Neurons with less than 50% of the baseline response to electrical field stimulation were considered inhibited. 300 uM Atip blocked activity in 100% of the cells; 100 uM Atip achieved a 62% blockade.

[7] = tested on: wild type, α2AAR knockout and α2CAR knock out mice; experiment: Paw withdrawal in response to strong pinch after subcutaneous plantar injection; format: in vivo; conditions: 5 mM subcutaneously in right plantar paw
Experimental: Studies testing the effect of Atip were also conducted in α2 receptor subunit knock-out mice. α2AAR knockout and α2CAR knock out mice were used in the study. Animals were injected with 5 mM Atip subcutaneously in their right plantar paw, and vehicle into the left plantar paw. They then received strong pinch to the paw skin and pads on each foot. Right and left paw withdrawal in response to the pinch was assessed.

[8] = tested on: hTCEpi cells; experiment: Cytotoxicity, Alamar Blue cell viability assay; format: cell-based, human; conditions: 24 or 48 hours incubation
Experimental: Cytotoxicity studies were performed using Human telomerase-immortalized human corneal epithelial cells (hTCEpi cells—obtained through Genon Corp., Menlo Park, CA, USA). The cells were plated at a density of 30,000 cells per well of a 96-well dish in growth media (Defined Keratinocyte Media with growth supplement, Invitrogen, Grand Island, NY, USA). After 24 hours of recovery, cells were treated with either growth media alone or growth media supplemented with 0.5% DMSO (vehicle), the indicated concentration of ATIP, or 0.5% proparacaine (Akorn, Forest Lake, IL). Cells were incubated for 24 or 48 hours at 37° C. in 5% CO2. Cell viability was assessed using an Alamar Blue Assay (Thermo Fisher, Waltham, MA, USA).
With reference to FIGS. 5A and 5B, data are plotted as the fraction of viable cells compared to growth media alone+/−S.E.M (n=3).

[9] = tested on: sensory axons; experiment: Sensory CAP recordings with IV-administered Atip after Dex; format: in vivo, rats; conditions: doses indicated for use as α-2 AR antagonist

T1 sequence (P06276 29-602): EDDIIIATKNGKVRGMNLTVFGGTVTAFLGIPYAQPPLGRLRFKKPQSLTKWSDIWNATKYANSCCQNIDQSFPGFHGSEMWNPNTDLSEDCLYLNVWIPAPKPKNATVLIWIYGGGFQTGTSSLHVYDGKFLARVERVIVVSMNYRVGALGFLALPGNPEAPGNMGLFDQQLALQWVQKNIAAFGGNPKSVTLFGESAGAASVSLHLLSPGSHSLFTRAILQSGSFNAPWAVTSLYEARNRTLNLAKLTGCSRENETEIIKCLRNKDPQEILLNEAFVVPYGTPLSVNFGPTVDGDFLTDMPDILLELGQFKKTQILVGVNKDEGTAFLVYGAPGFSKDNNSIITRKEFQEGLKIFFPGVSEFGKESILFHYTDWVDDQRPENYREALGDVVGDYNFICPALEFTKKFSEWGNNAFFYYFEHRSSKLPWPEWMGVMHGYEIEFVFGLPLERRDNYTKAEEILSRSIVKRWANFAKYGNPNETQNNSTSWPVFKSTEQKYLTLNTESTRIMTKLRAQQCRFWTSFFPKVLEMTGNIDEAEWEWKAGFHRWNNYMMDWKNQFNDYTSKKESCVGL

CCN(CC)CCOC(=O)c1ccc(N)cc1Cl [2-chloroprocaine]
rate of hydrolysis at the ester linkage, relative [1]: about four times faster than procaine

CCC1(c2cnc[nH]2)Cc2ccccc2C1 [Atip, 4(5)-(2,3-dihydro-2-ethyl-1H-inden-2-yl)imidazole]
conduction in motor axons [2]: relative sparing of conduction | EMG of CTMR, nociceptor sensory conduction [3]: blocks activity in small sensory axons | nerve toxicity (return of EMG) ([3]; not washed out): does not poison the nerve | reversibility of conduction block (CAP peak and area) ([4]; 100 ul Atip undiluted clinical dose 5 mg/ml topically over the nerve, then wash-out): reversible | conduction in large and small sensory axons ([4]; Atip applied to the nerve, FIGS. 2A-3B together): strongly blocks conduction | action potentials induced by depolarizing current [5]: rapidly blocked | resting membrane potential [5]: does not alter the resting membrane potential | cells with blocked activity (less than 50% of baseline response to electrical field stimulation) ([6]; 100 uM): 62% | cells with blocked activity (less than 50% of baseline response to electrical field stimulation) ([6]; 300 uM): 100% | withdrawal of the Atip-injected right paw on pinch ([7]; wild type mice): no withdrawal of the right paw | withdrawal of the Atip-injected right paw on pinch ([7]; α2AAR knockout mice): no withdrawal of the right paw | withdrawal of the Atip-injected right paw on pinch ([7]; α2CAR knock out mice): no withdrawal of the right paw | toxicity (fraction of viable cells compared to growth media alone) versus 0.5% proparacaine [8]: reduced toxicity | sensory conduction block by IV-administered Atip [9]: does not itself block conduction

CCN(CC)CC(=O)Nc1c(C)cccc1C [lidocaine, Lidocaine]
efficacy of blockade compared with Atip ([6]; 200 uM, therapeutic concentration): less efficacious than the highest tested concentration of Atip, and similar to the lowest concentration of Atip tested

CCN(CC)CCOC(=O)c1ccc(N)cc1 [procaine]
rate of hydrolysis at the ester linkage, relative [1]: about four times faster than tetracaine

From patent US12414937B2, “Local and regional anesthesia and analgesia” (UNIVERSITY OF LOUISVILLE RESEARCH FOUNDATION, INC., priority 2015, dated 2025)
